Assay results published in ChEMBL document CHEMBL5046319, “Development of Low-Molecular-Weight Compounds Targeting the Cancer-Associated KLF5 Transcription Factor” (ACS Med Chem Lett, 2022).
Calls of active or inactive are those of the source. The rule behind the calls is not given here.

What was measured:
CCD-841CoN [1] = assay: Cytotoxicity against human CCD841 cells assessed as inhibition of cell proliferation at 100 uM incubated for 72 hrs by CCK-8 assay; assay type: toxicity, cell-based
HCT-116 [2] = assay: Antiproliferative activity against human HCT-116 cells assessed as inhibition of cell proliferation at 100 uM incubated for 72 hrs by CCK-8 assay; assay type: functional, cell-based
SW480 [3] = assay: Antiproliferative activity against human SW480 cells assessed as inhibition of cell proliferation at 100 uM incubated for 72 hrs by CCK-8 assay; assay type: functional, cell-based
SW480 [4] = assay: Antiproliferative activity against human SW480 cells assessed as cell growth inhibition measured after 72 hrs by Cell Counting Kit-8 assay; assay type: functional, cell-based; conditions: SW480, 72 h
SW480 [5] = assay: Inhibition of Wnt signalling in human SW480 cells assessed as reduction in survivin expression at 10 uM measured after 24 hrs by western blot analysis; assay type: cell-based
CCD-841CoN [6] = assay: Inhibition of Wnt signalling in human CCD841 cells assessed as reduction in survivin expression at 10 uM measured after 24 hrs by western blot analysis; assay type: cell-based
CCD-841CoN [7] = assay: Inhibition of Wnt signalling in human CCD841 cells assessed as reduction in KLF5 expression at 10 uM measured after 24 hrs by western blot analysis; assay type: cell-based
SW480 [8] = assay: Inhibition of Wnt signalling in human SW480 cells assessed as reduction in KLF5 mRNA expression at 10 uM measured after 24 hrs by RT-PCR analysis; assay type: cell-based
SW480 [9] = assay: Inhibition of Wnt signalling in human SW480 cells assessed as reduction in TCF4 expression at 10 uM measured after 24 hrs by western blot analysis; assay type: cell-based
CCD-841CoN [10] = assay: Cytotoxicity against human CCD-841 cells assessed as cell growth inhibition measured after 72 hrs by Cell Counting Kit-8 assay; assay type: toxicity, cell-based
CCD-841CoN [11] = assay: Inhibition of Wnt signalling in human CCD841 cells assessed as reduction in TCF4 expression at 10 uM measured after 24 hrs by western blot analysis; assay type: cell-based
SW480 [12] = assay: Inhibition of Wnt signalling in human SW480 cells assessed as reduction in KLF5 expression at 10 uM measured after 24 hrs by western blot analysis; assay type: cell-based
SW480 [13] = assay: Inhibition of Wnt signalling in human SW480 cells assessed as reduction in phosphorylation of beta-catenin at ser552 residues at 10 uM measured after 24 hrs by western blot analysis; assay type: cell-based
HCT-116 [14] = assay: Antiproliferative activity against human HCT-116 cells assessed as cell growth inhibition measured after 72 hrs by Cell Counting Kit-8 assay; assay type: functional, cell-based; conditions: HCT-116, 72 h
HEK293T = assay: Inhibition of USP3-KLF5 protein complex formation in HEK293T cells overexpressing Myc tag-USP3 and FLAG/HA-KLF5 proteins assessed as reduction in KLF5 expression at 20 uM measured after 4 hrs by western blot analysis; assay type: cell-based; conditions: Homo sapiens
CCD-841CoN [15] = assay: Inhibition of Wnt signalling in human CCD841 cells assessed as reduction in cyclin D1 expression at 10 uM measured after 24 hrs by western blot analysis; assay type: cell-based
HT-29 = assay: Antitumour activity against human HT-29 cells subcutaneously transplanted in nude mouse assessed as reduction in tumor volume at 2 mg, ip administered twice per day for 8 days; assay type: functional, organism-based; conditions: time 8.0 day
SW480 [16] = assay: Inhibition of Wnt2 signalling in human SW480 cells assessed as reduction in cyclin D1 expression at 10 uM measured after 24 hrs by western blot analysis; assay type: cell-based
SW480 [17] = assay: Inhibition of USP3-KLF5 protein complex formation in human SW480 cells assessed as reduction in beta-catenin expression at 10 uM measured after 24 hrs by western blot analysis; assay type: cell-based
SW480 [18] = assay: Inhibition of Wnt signalling in human SW480 cells assessed as reduction in phosphorylation of beta-catenin at ser675 residue at 10 uM measured after 24 hrs by western blot analysis; assay type: cell-based
[19] = Toxicity in nude mouse transplanted subcutaneously with human HT-29 cells assessed as abnormality in epithelial cell integrity at 2 mg, ip administered twice daily for 8 days by H and E staining based assay; assay type: organism-based; conditions: in vivo, 192 h, time 8 day
CCD-841CoN [20] = assay: Inhibition of Wnt signalling in human CCD841 cells assessed as reduction in phosphorylation of beta-catenin at ser675 residue at 10 uM measured after 24 hrs by western blot analysis; assay type: cell-based
[21] = Toxicity in nude mouse transplanted subcutaneously with human HT-29 cells assessed as abnormality in villi formation at 2 mg, ip administered twice daily for 8 days by H and E staining based assay; assay type: organism-based; conditions: in vivo, 192 h, time 8 day

CC(C)[C@H](O)C(=O)O
Activity (CCD-841CoN [1]): Toxic
Activity (HCT-116 [2]): Active
Activity (SW480 [3]): Active

CC[C@H](C)[C@H](NC(=O)OCC1c2ccccc2-c2ccccc21)C(=O)O
Activity (CCD-841CoN [1]): Toxic
Activity (HCT-116 [2]): Active
Activity (SW480 [3]): Active

CCOC(CN)OCC
Activity (CCD-841CoN [1]): Toxic
Activity (HCT-116 [2]): Active
Activity (SW480 [3]): Active

CC(C)[C@H](O)C(=O)OCc1ccccc1
Activity (CCD-841CoN [1]): Toxic
Activity (HCT-116 [2]): Active
Activity (SW480 [3]): Active

O=Cc1ccccc1 [BENZALDEHYDE]
Activity (CCD-841CoN [1]): Toxic
Activity (HCT-116 [2]): Active
Activity (SW480 [3]): Active

CCCC[C@H]1CN(Cc2ccccc2)C[C@@H]2N(C(=O)OCC(C)C)O[C@H](C(C)C)C(=O)N12
IC50 (SW480 [4]): 5.1 µM
Activity (SW480 [5]): Active
Activity (CCD-841CoN [6]): inactive
Activity (CCD-841CoN [7]): inactive
Activity (SW480 [8]): inactive
Activity (SW480 [9]): Active
Activity (CCD-841CoN [10]): Non-Toxic
Activity (CCD-841CoN [11]): inactive
Activity (SW480 [12]): Active
Activity (SW480 [13]): Active
IC50 (HCT-116 [14]): 5.1 µM

O=C1[C@H](Cc2ccc(O)cc2)N2C(=O)CCN(C(=O)NCc3ccccc3)[C@H]2CN1Cc1cccc2ccccc12
Activity (CCD-841CoN [1]): Toxic
Activity (HCT-116 [2]): Active
Activity (SW480 [3]): Active

CCOC(CN(Cc1ccccc1)C(=O)[C@@H](NC(=O)OCC1c2ccccc2-c2ccccc21)[C@@H](C)CC)OCC
Activity (CCD-841CoN [1]): Toxic
Activity (HCT-116 [2]): Active
Activity (SW480 [3]): Active

CC(C)[C@@H](ON)C(=O)OCc1ccccc1
Activity (CCD-841CoN [1]): Toxic
Activity (HCT-116 [2]): Active
Activity (SW480 [3]): Active

O=C1c2ccccc2C(=O)N1O
Activity (CCD-841CoN [1]): Toxic
Activity (HCT-116 [2]): Active
Activity (SW480 [3]): Active

CCOC(CNCc1ccccc1)OCC
Activity (CCD-841CoN [1]): Toxic
Activity (HCT-116 [2]): Active
Activity (SW480 [3]): Active

CC(C)[C@@H](ON1C(=O)c2ccccc2C1=O)C(=O)OCc1ccccc1
Activity (CCD-841CoN [1]): Toxic
Activity (HCT-116 [2]): Active
Activity (SW480 [3]): Active

CC[C@H](C)[C@H]1CN(Cc2ccccc2)C[C@@H]2N(C(=O)OCC(C)C)O[C@H](C(C)C)C(=O)N12
Activity (HEK293T): Active
IC50 (SW480 [4]): 2.5 µM
Activity (SW480 [5]): Active
Activity (CCD-841CoN [15]): inactive
Activity (HT-29): Active
Activity (SW480 [16]): Active
Activity (SW480 [9]): Active
Activity (SW480 [17]): Active
Activity (SW480 [18]): Active
Activity (CCD-841CoN [10]): Non-Toxic
Activity [19]: Non-Toxic
Activity (SW480 [12]): Active
Activity (CCD-841CoN [20]): inactive
Activity (SW480 [13]): Active
IC50 (HCT-116 [14]): 2.5 µM
Activity [21]: Non-Toxic

CC(C)COC(=O)N1O[C@H](C(C)C)C(=O)N2[C@@H](CC(C)C)CN(Cc3ccccc3)C[C@H]12
IC50 (SW480 [4]): 5.1 µM
Activity (SW480 [5]): Active
Activity (CCD-841CoN [6]): inactive
Activity (CCD-841CoN [7]): inactive
Activity (SW480 [8]): inactive
Activity (SW480 [9]): Active
Activity (CCD-841CoN [10]): Non-Toxic
Activity (CCD-841CoN [11]): inactive
Activity (SW480 [12]): Active
Activity (SW480 [13]): Active
IC50 (HCT-116 [14]): 5.1 µM

CCOC(CN(Cc1ccccc1)C(=O)[C@@H](N)[C@@H](C)CC)OCC
Activity (CCD-841CoN [1]): Toxic
Activity (HCT-116 [2]): Active
Activity (SW480 [3]): Active
